Measurements from patent US20160340683A1, “NANOCARRIER BASED PLANT TRANSFECTION AND TRANSDUCTION” (HER MAJESTY THE QUEEN IN RIGHT OF CANADA AS REPRESENTED BY …, priority 2007, published 2016).

Tested on: isolated microspores of Triticale (variety Sunray)
Test: CPP delivery of GUS enzyme into isolated microspores, GUS staining
Format: cell-based
Details: GUS enzyme cargo:CPP 1:4, 1 hour at 37° C., three repeats
Method: Triticale line Sunray grown in a growth cabinet with a photoperiod of 19 h day (intensity 300 μE m-2 s-1), and temperature 18-15° C. (day-night) with a relative humidity at about 70% was used as the donor plant material. The plants were fertilized every 2 weeks (20-20-20, 200 ppm) and treated with 2.5 ml I-1 Tilt™ (propiconazole, Syngenta) during the tillering stage and Intercept™ (0.004 g per litre of soil, Imidacloprid, Bayer) once sufficient root development was established. The first 10 tillers from each pot were harvested when the spike was at 3-4 cm, depending on the crop, from emergence from the boot. These tillers (to be used for microspore isolation) were subjected to pre-treatment in a refrigerator (4° C.) for 21 days with their bases in distilled water and their heads wrapped in aluminum foil. After 21±3 days of pre-treatment, the spikes were excised from their tillers and after an evaluation of their general appearance, only the most homogenous spikes were used. After confirming microspores at mid to bi-nucleate stage from a median floret, using acetocarmine staining, the tillers were processed for extraction.
Awns were removed with scissors in a laminar flow hood. Eight-fourteen spikes were used for microspore isolation. They were sterilized with 10% bleach (5.25% sodium hypochlorite) for 3 min followed by rinsing in sterile double distilled water four times of 1 min each with constant agitation. Outer glumes were removed and florets from all the spikes were aseptically dissected and transferred to a sterile and refrigerated 110 ml Warring blender cup (VWR international, #58983-093) containing 50 ml filter sterilized extraction buffer at 4° C. Florets were then blended twice for 7 s at low speed (18000 rpm). The slurry was then poured through a 1 mm sieve followed by pouring through a 100 μm sterile mesh (VWR International, #CA21008-950) into two 50 ml centrifuge tubes (25 ml each). The blender cup was rinsed with 50 ml extraction buffer at 4° C. and poured through the 100 μm mesh and was added to the first aliquot in the 50 ml tubes. The cells were then pelleted by centrifugation (100×g for 5 min at 4° C.) using a swinging bucket rotor. After pouring off the supernatant, the microspore-containing pellets were pooled together in one 50 ml tube and re-suspended in 50 ml cold extraction buffer. The cells were pelleted again with centrifugation (100×g for 5 min at 4° C.), the supernatant poured off and the pellet was transferred to a 15 ml tube. After re-suspending the pellet in CIMC Wash Buffer supplemented with 10 microM SS-31 peptide, it was subjected to wash and centrifugation using the above conditions. The supernatant was removed and the pellet was re-suspended in CIMC Wash buffer and centrifugation was repeated as above. The pellet was then suspended in 7 mL of 20% maltose at 4° C., layered with 1 mL of CIMC wash buffer and was centrifuged at 100 g for 13 min at 4° C. A band of microspores formed at the interface was collected in a new 15 ml tube. The cells were diluted with CIMC wash solution and subsequently collected by centrifugation at 150 g for 5 min. The supernatant was removed and the cells were finally suspended in a total volume of 1.4 ml of appropriate solution. After counting the cells using a haemocytometer, aliquots of 100,000 cells in 200 μl volume were prepared in 2 ml microcentrifuge tubes to be ready for transduction.
Peptide stock solutions were made in water at 1 μg/μl concentration. CPP (Nanocarrier) and GUS enzyme (cargo) were first prepared in separate microcentrifuge tubes. A total of 4 μg of CPP was prepared in sterile water to a final volume of 100 μl. Similarly, 1 μg of GUS enzyme was added to sterile water to a final volume of 100 μl. The contents of the two tubes were mixed together giving a ratio of 1:4 protein cargo:CPP. The complex was incubated for 30 min at room temperature (RT). Chariot (PAP1) protein delivering reagent was used as a positive control in the experiments. […]

Sequence	Average Transduction Efficiency [%]
RRRRRITRVRRRRRRR [CPP39]	13.15
RRARRRTRRGGGEAGRRQERRRRRRRR [CPP31]	0
RTSKRRVRRRRRRR [CPP38]	0
RRLTTGLSFYSKPYRRSRGPRHRTEKRKRIR [CPP56]	5.47
RRRIAGSALVGAPPQARRRRRRR [CPP52]	0
RRRRRRRRRRVRFDSRR [CPP7]	16.63
RRDGVPRRRRRRRHMGRQR [CPP27]	2.06
RKRKRGKGIGSGRGRGRGR [CPP43]	0
KSKANRHRHHRRHRQQKPTTTRRRRR [CPP64]	5.40
RRHRQQKPTTTRRRRR [CPP65]	0
RRRRKKRGRKGRDKEERRDRRRRRRR [CPP40]	11.74
KRRRSWRRRRSRTRQRRRRSRRRRRRRR [CPP41]	21.17
RRRRRRRRHEQRRRRRKRGRGR [CPP2]	18.7
RRSKRDVRGRQRRRRRRRLFPRR [CPP1]	21.07
KKKKKKKRPTALTPTPSLLRRRRRRR [CPP26]	0
RPLPLPLPLPRGPRRRRRRR [CPP30]	0
RRRKGSSYRRRRRRRRR [CPP20]	0
RRRPRPARLRHRLHRPINLKFERK [CPP15]	9.23
RRRQERRER [CPP63]	0
KTAATTLRRRRRRRRGRR [CPP28]	5.61
MALERPWKRRRRRRR [CPP47]	0
RAWYRFRHLVRGKWRERLRRKFK [CPP62]	9.78
RRSLLSRRIRRRLRRRPKPRRRRRRR [CPP46]	9.31
RRWRRRRSRRRRRRRRR [CPP18]	0
MDERRRRRRRLTATRKVAAARRRRKRR [CPP54]	6.21

Sequence	Average Transduction Efficiency [%]
KGHRFRSKFRHYRFRFR [CPP45]	0
KRKPKGGDAAEGSEKRKPKKKK [CPP16]	0
RRRGRRRRRRRRQRQQRR [CPP6]	15.07
RARRRSTARRRKRRTPTRSGR [CPP32]	1.26
RRRRRRRGRDARRR [CPP8]	2.78
RRRRKKRGRKGRDKEERRDRRRRRRR [CPP11]	16.61
RKQPGRKPGVRTARPKRSKKSQLKK [CPP58]	0
RRKNDKPKTGGEKKSTKDAPESSKKKNRK [CPP61]	0
RCRRRRRRRETTSR [CPP67]	0
KKKGKGKKKKQGK [CPP4]	0
RRFRRTAPRAAGEARGLRRLRKSR [CPP57]	5.77
MRRRRRRRRR [CPP48]	1.09
RRPHSRHRRRRRRR [CPP10]	0
RRRRKKRGRKGRDKEERRDR [CPP42]	1.20
RSGRRDRRRKKGSAR [CPP59]	0
RKKKGKRKEERER [CPP55]	0
RAGVDGRGRRRRRRRR [CPP50]	1.31
RRRRRRRAGERRAREDMGRRKFR [CPP19]	0
RRRRRRREKLAEATRGGGEKR [CPP35]	0
KRKKSGKKKKIGRFLSRLVGAEKRR [CPP9]	5.79
RKRKRGKGIGSGRGRGRGRASGSEKGRGSGKGKAK [CPP44]	11.27
RRRVGRRAPRRRRR [CPP51]	0
RRLRCRREGKEKR [CPP60]	0
RRSGRRQRRRRRRRRKR [CPP66]	23.38
RSSRRAAEGRRRRRRRREKR [CPP36]	0
